We go through 13 compounds from patent US11078170B2 (Assembly Biosciences, Inc., priority 2017, dated 2021).

Bounds are passed on as bounds.

The subject of the experiment is HBV viral production from HepAD38 cells. The experiment can be described thus: Activity of test compounds on viral production from HepAD38 cells (viral load by qPCR of HBV core sequence in supernatant). The settings on record: Hepatitis B virus, 120 h, 5 days incubation, HBV DNA in supernatant by qPCR, top concentration 10 μM, read-out: Viral Load EC50 Activity range. The class given is cell-based. In a few lines:
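HepAD38 cells, 50,000/well in tetracycline-free 2% FBS medium, treated 5 days at 37° C. with compound from 10 μM top concentration. HBV DNA in supernatant quantified by TaqMan qPCR of core sequence against DNA standards, relative to DMSO wells; CellTiter-Glo viability read in parallel. EC50/CC50 from four-parameter logistic fit.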
Background: Real-time PCR tracks product formation cycle by cycle.

Consider `CN1C(C(=O)Nc2ccc(Cl)cc2)CC(c2cccs2)NS1(=O)=O` (stereo not drawn) [HBV-CSU-014, Cis-N-(4-chlorophenyl)-2-methyl-5-(thiophen-2-yl)-1,2,6-thiadiazinane-3-carboxamide 1,1-dioxide], for which the EC50 is 1000 to 5000 nM.

As for `CN1[C@H](C(=O)Nc2ccc(F)c(Cl)c2)C[C@H](c2ccnn2C)NS1(=O)=O` [HBV-CSU-054-ISO-II, Cis-N-(3-Chloro-4-fluorophenyl)-2-methyl-5-(1-methyl-1H-pyrazol-5-yl)-1,2,6-thiadiazinane-3-carboxamide 1,1-dioxide], the EC50 was 1000 to 5000 nM.

`COCCN1[C@H](C(=O)Nc2ccc(F)c(Br)c2)C[C@H](c2nccs2)NS1(=O)=O` [HBV-CSU-059-ISO-II, Cis-N-(3-bromo-4-fluorophenyl)-2-(2-methoxyethyl)-5-(thiazol-2-yl)-1,2,6-thiadiazinane-3-carboxamide 1,1-dioxide]: the half-maximal effective concentration (EC50) is less than 1000 nM.

Turning to `CN1[C@H](C(=O)Nc2ccc(F)c(Cl)c2)C[C@H](c2ccc(-c3ccc(F)cc3)s2)NS1(=O)=O` [HBV-CSU-238-ISO-I], the EC50 was less than 1000 nM.

On to `Cc1cc(C2CC(C(=O)Nc3ccc(F)c(Cl)c3)N(C)S(=O)(=O)N2)sc1-c1cnn(C)c1` (racemic) [HBV-CSU-300, Cis-N-(3-Chloro-4-fluorophenyl)-5-(4-methyl-5-(1-methyl-1H-pyrazol-4-yl)thiophen-2-yl)-2-methyl-1,2,6-thiadiazinane-3-carboxamide 1,1-dioxide], for which the EC50 was less than 1000 nM.

Regarding `CN1[C@H](C(=O)Nc2ccc(F)c(Cl)c2)C[C@H](c2cc(-c3cnn(C(F)(F)F)c3)cs2)NS1(=O)=O` [HBV-CSU-325-ISO-I, Cis-N-(3-Chloro-4-fluorophenyl)-2-methyl-5-(4-(1-(trifluoromethyl)-1H-pyrazol-4-yl)thiophen-2-yl)-1,2,6-thiadiazinane-3-carboxamide 1,1-dioxide], the EC50 is less than 1000 nM.

Regarding `CN1[C@@H](C(=O)Nc2ccc(F)c(Cl)c2)C[C@@H](c2cc(-c3cnn(C(F)(F)F)c3)cs2)NS1(=O)=O` (relative stereo) [HBV-CSU-325-ISO-II, Cis-N-(3-Chloro-4-fluorophenyl)-2-methyl-5-(4-(1-(trifluoromethyl)-1H-pyrazol-4-yl)thiophen-2-yl)-1,2,6-thiadiazinane-3-carboxamide 1,1-dioxide], the EC50 was more than 5000 nM.

For the compound `CN1[C@@H](C(=O)Nc2ccc(F)c(Cl)c2)C[C@@H](c2ccc(-c3cccs3)s2)NS1(=O)=O` [HBV-CSU-162-ISO-II, Cis-N-5-([2,2′-bithiophen]-5-yl)-N-(3-chloro-4-fluorophenyl)-2-methyl-1,2,6-thiadiazinane-3-carboxamide 1,1-dioxide], the EC50 is 1000 to 5000 nM.

With `CS(=O)(=O)CCN1C(C(=O)Nc2ccc(F)c(Cl)c2)CC(c2nccs2)NS1(=O)=O` (racemic) [HBV-CSU-073, Cis-N-(3-Chloro-4-fluorophenyl)-2-(2-(methylsulfonyl)ethyl)-5-(thiazol-2-yl)-1,2,6-thiadiazinane-3-carboxamide 1,1-dioxide], the EC50 was more than 5000 nM.

Take `CN1C(C(=O)Nc2ccc(F)c(Cl)c2)CC(c2ccc(F)cc2)NS1(=O)=O` (stereo not drawn) [HBV-CSU-112 (Cis), Cis-N-(3-Chloro-4-fluorophenyl)-5-(4-fluorophenyl)-2-methyl-1,2,6-thiadiazinane-3-carboxamide 1,1-dioxide]: the EC50 is less than 1000 nM.

For the compound `CN1[C@H](C(=O)Nc2ccc(F)c(Cl)c2)C[C@@H](c2ncc(Br)s2)NS1(=O)=O` [HBV-CSU-122-Trans-ISO-II, (3S,5S)-5-(5-bromothiazol-2-yl)-N-(3-chloro-4-fluorophenyl)-2-methyl-1,2,6-thiadiazinane-3-carboxamide 1,1-dioxide], the EC50 lay within 1000 to 5000 nM.

On to `CN1C(C(=O)Nc2ccc(F)c(Cl)c2)CC(c2cc(-c3ccc(F)cc3)cs2)NS1(=O)=O` (stereo not shown) [HBV-CSU-239], for which the EC50 is less than 1000 nM.

As to `CN1C(C(=O)Nc2ccc(F)c(Cl)c2)CC(c2ccc(C#N)cc2)NS1(=O)=O` (racemic) [HBV-CSU-213, Cis-N-(3-chloro-4-fluorophenyl)-5-(4-cyanophenyl)-2-methyl-1,2,6-thiadiazinane-3-carboxamide 1,1-dioxide], the EC50 was less than 1000 nM.

In general, EC50 refers to the concentration at which the effect is half-maximal.
